# According to article PMC2957673 (Cancer chemotherapy and pharmacology, 2010):
# Key:
# [1] = system: patients with advanced solid tumors; experiment: Phase I dose escalation: MTD and DLT of flavopiridol with FOLFIRI; format: in vivo, human
# [2] = system: patients with refractory colorectal cancer; details: combined with irinotecan at 125 mg/m^2 given weekly for 4 of every 6 weeks; cited from earlier work
# [3] = Flavopiridol plasma pharmacokinetics; format: in vivo; details: human, intravenous
# [4] = system: melanoma; details: single agent; 16 patients; cited from earlier work
# [5] = in combination with flavopiridol
# [6] = split-dose schedule (MTD2): 30-min bolus followed by 4-h infusion
smiles,measurement,setting,value
"O=c1[nH]cc(F)c(=O)[nH]1 [5FU, fluorouracil]","established MTD (FOLFIRI component), bolus",[1]; [5],400 mg/m^2
same,"established MTD (FOLFIRI component), over 48 h",[1]; [5],"2,400 mg/m^2"
"Nc1nc2c(c(=O)[nH]1)N(C=O)C(CNc1ccc(C(=O)N[C@@H](CCC(=O)O)C(=O)O)cc1)CN2 (some centres unmarked) [LV, leucovorin]",established MTD (FOLFIRI component),[1]; [5],400 mg/m^2
"CN1CC[C@H](c2c(O)cc(O)c3c(=O)cc(-c4ccccc4Cl)oc23)[C@H](O)C1 [flavopiridol, Flavopiridol]",MTD with FOLFIRI,"[1]; flavopiridol over 1 h (bolus schedule, cohort 9, MTD1), every 2 weeks",80 mg/m^2
same,"MTD with FOLFIRI, bolus part",[1]; [6],35 mg/m^2
same,"MTD with FOLFIRI, part over 4 h",[1]; [6],35 mg/m^2
same,MTD of flavopiridol,[2],50 mg/m^2
same,Cmax,"[3]; Cmax, at MTDs, patients who experienced DLT",3.48 µM
same,Cmax,"[3]; Mean Cmax, cycle 1, cohort 9: flavopiridol 80 mg/m^2, irinotecan 180 mg/m^2, n 6",2.69 µM
same,objective responses,[4],no objective responses
CCc1c2c(nc3ccc(OC(=O)N4CCC(N5CCCCC5)CC4)cc13)-c1cc3c(c(=O)n1C2)COC(=O)[C@]3(O)CC [irinotecan],established MTD (FOLFIRI component),[1]; [5],180 mg/m^2
